# Like-named read-outs stand apart in the source and are kept apart here.
# Key:
# [1] = system: human cervix carcinoma (HeLa) cells; experiment: Antiproliferative assay, cell counting (Coulter Counter), HeLa; assay type: cell-based; conditions: read-out: IC50, inhibition of proliferation
# Method: (§1) Human cervix carcinoma (HeLa), human colon carcinoma (HT29), human breast carcinoma (MCF-7) and human lymphoma (HL-60) cells (3–5 × 10^4 cells) and a serial (five-fold) dilution of the test compounds were added to a 96-well microtiter plate. The cells were incubated for 72–96 h (depending on the tumor cell line) at 37 °C in a humidified 5% CO2 atmosphere. At the end of the incubation period, the cells were counted in a Coulter Counter (Coulter Electronics Ltd, Harpenden Herts, UK). […] The IC50 values represent the average (±standard deviation) of at least two to four independent experiments.
# [2] = system: human breast adenocarcinoma (MCF-7) cells; experiment: Antiproliferative assay, cell counting (Coulter Counter), MCF-7; assay type: cell-based; conditions: read-out: IC50, inhibition of proliferation
# Method: as §1
# [3] = system: human promyelocytic leukemia (HL-60) cells; experiment: Antiproliferative assay, cell counting (Coulter Counter), HL-60; assay type: cell-based; conditions: read-out: IC50, inhibition of proliferation
# Method: as §1
# [4] = system: human colon adenocarcinoma (HT29) cells; experiment: Antiproliferative assay, cell counting (Coulter Counter), HT29; assay type: cell-based; conditions: read-out: IC50, inhibition of proliferation
# Method: as §1
# bovine brain tubulin = experiment: Inhibition of tubulin polymerisation (turbidimetric tubulin assembly); assay type: biochemical; conditions: tubulin 10 µM, 20 min at 30 °C; read-out: Tubulin assembly IC50±SD
# Method: (§2) To evaluate the effect of the compounds on tubulin assembly in vitro[40], varying concentrations of compounds were preincubated with 10 μM bovine brain tubulin in 0.8M monosodium glutamate (pH adjusted to 6.6 with HCl in a 2.0M stock solution) at 30 °C and then cooled to 0 °C. After addition of 0.4 mM GTP, the mixtures were transferred to 0 °C cuvettes in a recording spectrophotometer and warmed to 30 °C. Tubulin assembly was followed turbidimetrically at 350 nm. […] The capacity of the test compounds to inhibit colchicine binding to tubulin was measured as described. The reaction mixtures contained 1 μM tubulin, 5 μM [^3H]colchicine and 5 μM test compound.
# [5] = system: tubulin (colchicine site); experiment: Inhibition of [3H]colchicine binding to tubulin; parameters: species or system bovine; conditions: tubulin 1 µM, [3H]colchicine 5 µM, compound 5 µM
# Method: as §2
# [6] = system: U251 glioblastoma cancer cell line; parameters: method as in PMID 27343855; conditions: read-out: IC50, antiproliferative activity; cited from earlier work
# [7] = Homo sapiens, MCF7, MCF-7, 72–96 h
# [8] = Homo sapiens, HT-29, HT29, 72–96 h
# [9] = Homo sapiens, reference compounds in nM
# [10] = Homo sapiens, HL-60, reference compounds in nM
Compound,"IC50 ([1]; Homo sapiens, 72–96 h) [nM]","IC50 [2, 7] [nM]","IC50 ([3]; Homo sapiens, HL-60, 72–96 h) [nM]",melting point [°C],"IC50 [4, 8] [nM]",other results
"COC(=O)c1c(/C=C/C(=O)c2cc(OC)c(OC)c(OC)c2)c2ccc(OC)cc2n1C [Compound 9j, (E)-Methyl 6-methoxy-1-methyl-3-(3-oxo-3-(3,4,5-trimethoxyphenyl)prop-1-en-1-yl)-1H-indole-2-carboxylate]",≥ 100000,11000 ± 4000,14000 ± 10000,135 to 136,31000 ± 22000,
"CCOC(=O)c1[nH]c2ccccc2c1/C=C/C(=O)c1cc(OC)c(OC)c(OC)c1 [Compound 9b, (E)-Ethyl 3-(3-oxo-3-(3,4,5-trimethoxyphenyl)prop-1-en-1-yl)-1H-indole-2-carboxylate]",2100 ± 800,1800 ± 1500,,,440 ± 330,
"CCOC(=O)c1c(/C=C/C(=O)c2cc(OC)c(OC)c(OC)c2)c2cc(OC)ccc2n1CC [Compound 9m, (E)-Ethyl 1-ethyl-5-methoxy-3-(3-oxo-3-(3,4,5-trimethoxyphenyl)prop-1-en-1-yl)-1H-indole-2-carboxylate]",24000 ± 2000,26000 ± 4000,19000 ± 10000,160 to 161,14000 ± 6000,
"CCOC(=O)c1c(/C=C/C(=O)c2cc(OC)c(OC)c(OC)c2)c2ccccc2n1C [Compound 9h, (E)-Ethyl 1-methyl-3-(3-oxo-3-(3,4,5-trimethoxyphenyl)prop-1-en-1-yl)-1H-indole-2-carboxylate]",41000 ± 11000,8300 ± 2300,58000 ± 40000,138 to 140,5000 ± 1400,
"COC(=O)c1c(/C=C/C(=O)c2cc(OC)c(OC)c(OC)c2)c2ccccc2n1C [Compound 9g, (E)-Methyl 1-methyl-3-(3-oxo-3-(3,4,5-trimethoxyphenyl)prop-1-en-1-yl)-1H-indole-2-carboxylate]",69000 ± 12000,6700 ± 3000,67000 ± 46000,147 to 149,10000 ± 4000,
"CCn1c(C(=O)OC)c(/C=C/C(=O)c2cc(OC)c(OC)c(OC)c2)c2cc(OC)ccc21 [Compound 9l, (E)-Methyl 1-ethyl-5-methoxy-3-(3-oxo-3-(3,4,5-trimethoxyphenyl)prop-1-en-1-yl)-1H-indole-2-carboxylate]",6800 ± 2600,93000 ± 1000,26000 ± 15000,141 to 142,10000 ± 6000,
"COc1ccc(/C=C\c2cc(OC)c(OC)c(OC)c2)cc1O [CA-4, combretastatin A-4, reference compound]",,,,,,"IC50 [1, 9]: 4 ± 1 nM; IC50 [3, 10]: 1 ± 0.2 nM; IC50 (bovine brain tubulin): […]; Colchicine binding % ±SD (inhibition) [5]: 98 ± 0.9%"
"COC(=O)c1[nH]c2ccc(OC)cc2c1/C=C/C(=O)c1cc(OC)c(OC)c(OC)c1 [Compound 9c, (E)-Methyl 5-methoxy-3-(3-oxo-3-(3,4,5-trimethoxyphenyl)prop-1-en-1-yl)-1H-indole-2-carboxylate]",2400 ± 600,590,27000 ± 1000,,1000 ± 700,IC50 (bovine brain tubulin): > 20 µM; Colchicine binding % ±SD (inhibition) [5]: 5.3 ± 4%
"(E)-Methyl 1-benzyl-6-methoxy-3-(3-oxo-3-(3,4,5-trimethoxyphenyl)prop-1-en-1-yl)-1H-indole-2-carboxylate [Compound 9r]",,,,,,"IC50 ([1]; 72–96 h): 26000 ± 4000 nM; IC50 ([2]; MCF-7, 72–96 h): 28000 ± 3000 nM; IC50 ([3]; HL-60, 72–96 h): 32000 ± 3000 nM; IC50 ([4]; HT29, 72–96 h): 27000 ± 2000 nM"
"COc1ccc2c(/C=C/C(=O)c3cc(OC)c(OC)c(OC)c3)c[nH]c2c1 [4a, reference compound]",,,,,,"IC50 [1, 9]: 81 ± 2 nM; IC50 ([2]; Homo sapiens, MCF7, MCF-7, reference compounds in nM): 49 ± 4 nM; IC50 [3, 10]: 23 ± 1 nM; IC50 ([4]; Homo sapiens, HT-29, HT29, reference compounds in nM): 60 ± 3 nM"
"CCn1c(C(=O)OC)c(/C=C/C(=O)c2cc(OC)c(OC)c(OC)c2)c2ccc(OC)cc21 [Compound 9n, (E)-Methyl 1-ethyl-6-methoxy-3-(3-oxo-3-(3,4,5-trimethoxyphenyl)prop-1-en-1-yl)-1H-indole-2-carboxylate]",24000 ± 15000,36000 ± 23000,47000 ± 11000,157 to 158,19000 ± 9000,
"COC(=O)c1c(/C=C/C(=O)c2cc(OC)c(OC)c(OC)c2)c2cc(OC)ccc2n1Cc1ccccc1 [Compound 9q, (E)-Methyl 1-benzyl-5-methoxy-3-(3-oxo-3-(3,4,5-trimethoxyphenyl)prop-1-en-1-yl)-1H-indole-2-carboxylate]",15000 ± 7000,48000 ± 8000,39000 ± 27000,170 to 171,18000 ± 10000,
COc1ccc2[nH]c(C)c(/C=C/C(=O)c3cc(OC)c(OC)c(OC)c3)c2c1 [compound 3],,,,,,IC50 [6]: > 10 µM
"CCOC(=O)c1c(/C=C/C(=O)c2cc(OC)c(OC)c(OC)c2)c2ccccc2n1Cc1ccccc1 [Compound 9p, (E)-Ethyl 1-benzyl-3-(3-oxo-3-(3,4,5-trimethoxyphenyl)prop-1-en-1-yl)-1H-indole-2-carboxylate]",61000 ± 41000,50000 ± 4000,9000 ± 5100,128 to 130,9200 ± 4700,
"COC(=O)c1c(/C=C/C(=O)c2cc(OC)c(OC)c(OC)c2)c2cc(OC)ccc2n1C [Compound 9i, (E)-Methyl 5-methoxy-1-methyl-3-(3-oxo-3-(3,4,5-trimethoxyphenyl)prop-1-en-1-yl)-1H-indole-2-carboxylate]",25000 ± 3000,2700 ± 900,28000 ± 3000,150 to 151,22000 ± 1000,
"COC(=O)c1[nH]c2ccccc2c1/C=C/C(=O)c1cc(OC)c(OC)c(OC)c1 [Compound 9a, (E)-Methyl 3-(3-oxo-3-(3,4,5-trimethoxyphenyl)prop-1-en-1-yl)-1H-indole-2-carboxylate]",2000 ± 1000,1100 ± 400,4400,,7300 ± 1200,
"COC(=O)c1c(/C=C/C(=O)c2cc(OC)c(OC)c(OC)c2)c2ccccc2n1Cc1ccccc1 [Compound 9o, (E)-Methyl 1-benzyl-3-(3-oxo-3-(3,4,5-trimethoxyphenyl)prop-1-en-1-yl)-1H-indole-2-carboxylate]",8200 ± 1500,71000 ± 18000,41000 ± 25000,166 to 168,11000 ± 6000,
"CCn1c(C(=O)OC)c(/C=C/C(=O)c2cc(OC)c(OC)c(OC)c2)c2ccccc21 [Compound 9k, (E)-Methyl 1-ethyl-3-(3-oxo-3-(3,4,5-trimethoxyphenyl)prop-1-en-1-yl)-1H-indole-2-carboxylate]",9400 ± 3100,11000 ± 10000,37000 ± 1000,115 to 117,6700 ± 1200,

# From publication PMC6116705, “Design, synthesis, in vitro antiproliferative activity and apoptosis-inducing studies of 1-(3′,4′,5′-trimethoxyphenyl)-3-(2′-alkoxycarbonylindolyl)-2-propen-1-one derivatives obtained by a molecular hybridisation approach” (Journal of Enzyme Inhibition and Medicinal Chemistry, 2018)
